Source: patent US5200422A, “Benzimidazole derivatives, their preparation and use” (priority 1991, dated 1993)
Where two headings read alike, the source gives them in different places.

Assays:
Assay type in all cases: cell-based
[1] = biological target: BKCa channel (Bos taurus, UniProt Q28204); assay: Patch-clamp, cultured bovine aortic smooth muscle cells
Experimental: (§1) All experiments were performed with patch-clamp technique (Hamill et al., Pflugers Arch. 391, 85-100 (1981). The ion composition of the internal solution was (in mM) 4 NaCl, 140 KCl, 1 CaCl2, 1 MgCl2, 2 EGTA, 10 HEPES and the external solution contained 140 NaCl, 4 KCl, 2 CaCl2, 1 MgCl2 and 10 HEPES.

[2] = system: BKCa channel; assay: Single channel experiments, inside-out patches of cerebellar granule cell membrane
Experimental: as §1
In inside-out patches of cerebellar granule cell membrane single BKCa channels were activated by for example 5-trifluoromethyl-1-(5-chloro-2-hydroxyphenyl)-1,3-dihydro-2H-benzimidazole-2-one (3-10 μM), 5-trifluoromethyl-I-(2-hydroxyphenyl)-1,3-dihydro-2H-benzimidazole-2-one ([…]), 5-trifluoromethyl-1-(5-phenyl-2-hydroxyphenyl)-1,3-dihydro-2H-benzimidazole-2-one (3-30 μM). […] No effect was found on the delayed rectifier K^+ channel or on the Cl^- channels also present in the patches.
(§2) The BKCa channel in granule cells has been studied in symmetric 144 mM K^+, and under these conditions the average conductance is 154 pS (76 pS with 4 mM external K^+).

[3] = system: 160-180 pS BKCa channel; assay: Patch-clamp, cultured guinea pig tracheal smooth muscle cells
Experimental: as §1

[4] = system: N1E-115 neuroblastoma cells; assay: Whole cell recordings: membrane potential in current clamp mode; settings: 30 μM to the bath
Experimental: as §1
The membrane potential of N1E-115 neuroblastoma cells was determined in whole-cell recordings using current clamp mode (HEKA EPC-9 patch-clamp amplifier) Due to the high-resistance seal and the large size of these cells, the recorded membrane potential stayed stable for periods of 30-60 min, although at somewhat depolarized values (-15--60 Mv).
The equilibrium potentials for K^+, Cl^-, and Na^+ in these experiments were -90 mV, 0 mV, and +90 mV, respectively (cf. ion composition above) Thus, since potassium is the only ion having a reversal potential more negative than the resting membrane potential, the observed hyperpolarization induced by the test compound must be explained through an increased potassium conductance.

[5] = system: BKCa channel; assay: Outside-out patches of granule cells, channel block; settings: silent periods interdispersed with periods of low or normal activity
Experimental: as §1, §2

Sequence of BKCa channel (Bos taurus, UniProt Q28204) (Q28204 whole entry): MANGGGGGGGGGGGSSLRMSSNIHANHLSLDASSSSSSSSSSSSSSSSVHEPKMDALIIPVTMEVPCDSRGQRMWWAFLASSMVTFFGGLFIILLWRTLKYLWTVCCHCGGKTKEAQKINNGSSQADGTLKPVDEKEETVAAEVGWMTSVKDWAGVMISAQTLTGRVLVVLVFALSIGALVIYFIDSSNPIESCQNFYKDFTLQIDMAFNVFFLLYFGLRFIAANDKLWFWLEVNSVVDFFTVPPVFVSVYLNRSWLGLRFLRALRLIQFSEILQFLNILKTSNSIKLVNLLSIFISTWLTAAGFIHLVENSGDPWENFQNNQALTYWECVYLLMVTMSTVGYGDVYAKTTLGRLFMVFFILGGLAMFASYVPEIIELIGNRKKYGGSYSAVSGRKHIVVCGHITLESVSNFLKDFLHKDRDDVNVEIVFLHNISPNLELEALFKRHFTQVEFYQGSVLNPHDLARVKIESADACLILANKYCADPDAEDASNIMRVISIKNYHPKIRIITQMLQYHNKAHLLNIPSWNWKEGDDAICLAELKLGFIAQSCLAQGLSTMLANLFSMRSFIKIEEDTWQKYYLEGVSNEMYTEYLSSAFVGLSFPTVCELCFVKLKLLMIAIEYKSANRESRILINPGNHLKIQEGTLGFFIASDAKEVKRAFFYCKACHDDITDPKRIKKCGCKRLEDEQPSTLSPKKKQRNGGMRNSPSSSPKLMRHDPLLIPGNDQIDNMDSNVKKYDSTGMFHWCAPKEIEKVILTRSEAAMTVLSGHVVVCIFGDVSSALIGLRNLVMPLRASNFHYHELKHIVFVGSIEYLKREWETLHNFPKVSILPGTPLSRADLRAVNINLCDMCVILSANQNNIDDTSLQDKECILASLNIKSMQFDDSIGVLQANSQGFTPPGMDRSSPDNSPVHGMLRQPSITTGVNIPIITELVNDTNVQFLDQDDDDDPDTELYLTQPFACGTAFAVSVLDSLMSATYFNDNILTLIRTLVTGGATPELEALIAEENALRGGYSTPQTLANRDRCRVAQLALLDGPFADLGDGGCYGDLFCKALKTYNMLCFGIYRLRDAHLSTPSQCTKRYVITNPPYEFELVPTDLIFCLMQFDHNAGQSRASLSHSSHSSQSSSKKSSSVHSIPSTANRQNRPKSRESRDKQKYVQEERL
Sequence of BKCa channel (Bos taurus, UniProt Q28204) (Q28067 whole entry partner): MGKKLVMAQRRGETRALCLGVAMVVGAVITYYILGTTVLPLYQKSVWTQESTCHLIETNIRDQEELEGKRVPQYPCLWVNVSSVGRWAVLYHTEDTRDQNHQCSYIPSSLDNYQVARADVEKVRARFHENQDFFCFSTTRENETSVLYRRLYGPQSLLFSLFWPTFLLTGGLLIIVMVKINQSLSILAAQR

Compound: Oc1ccccc1-n1c(=S)[nH]c2cc(C(F)(F)F)ccc21 [1,3-dihydro-1-(2-hydroxyphenyl)-5-trifluoromethyl-2H-benzimidazole-2-thion]
- activation of the BKCa channel ([1]; 3-30 μM): significantly activated

Compound: O=c1[nH]c2cc(C(F)(F)F)ccc2n1-c1cc2ccccc2cc1O [1,3-dihydro-1-(3-hydroxy-2-naphthyl)-5-trifluoromethyl-2H-benzimidazol-2-one]
- activation of the BKCa channel ([1]; 3-30 μM): significantly activated

Compound: O=c1[nH]c2cc(Cl)c(Cl)cc2n1-c1cc(Cl)ccc1O [1,3-dihydro-1-(5-chloro-2-hydroxyphenyl)-5,6-dichloro-2H-benzimidazole-2-one]
- activation of the BKCa channel ([1]; 3-30 μM): significantly activated

Compound: O=c1[nH]c2cc(C(F)(F)F)c([N+](=O)[O-])cc2n1-c1cc(Cl)cc([N+](=O)[O-])c1O [1,3-dihydro-1-(5-chloro-3-nitro-2-hydroxyphenyl)-5-trifluoromethyl-6-nitro-2H-benzimidazol-2-one]
- activation of the BKCa channel ([1]; 1-3 μM): significantly activated

Compound: O=c1[nH]c2cc(C(F)(F)F)ccc2n1-c1cc(-c2ccccc2)ccc1O [1,3-dihydro-1-(5-phenyl-2-hydroxyphenyl)-5-trifluoromethyl-2H-benzimidazol-2-one]
- activation of the BKCa channel ([1]; 3-30 μM): significantly activated
- activation of single BKCa channels ([2]; 3-30 μM): activated

Compound: O=c1[nH]c2cc(C(F)(F)F)ccc2n1-c1cc(Cl)ccc1O [1-(5-chloro-2-hydroxyphenyl)-5-trifluoromethyl-1,3-dihydro-2H-benzimidazol-2-one]
- activation of the BKCa channel [3]: potently activated
- activation of the BKCa channel ([1]; 3-30 μM): significantly activated
- delay before hyperpolarization of the cells [4]: 1 to 3 min
- average hyperpolarization ([4]; current clamp, SD=-5 Mv, n=8): -14 Mv
- activation of single BKCa channels ([2]; 3-10 μM): activated

Compound: O=c1[nH]c2cc(C(F)(F)F)ccc2n1-c1ccccc1O [5-trifluoromethyl-1,3-dihydro-1-(2-hydroxyphenyl)-2H-benzimidazol-2-one]
- activation of single BKCa channels [2]: activated

Compound: Charybdotoxin
- block of the BKCa channel [5]: blocks the channel
